Assay [1] addresses T1, Nitric oxide synthase, inducible (Mus musculus, UniProt P29477).
T1 sequence (P29477 whole entry): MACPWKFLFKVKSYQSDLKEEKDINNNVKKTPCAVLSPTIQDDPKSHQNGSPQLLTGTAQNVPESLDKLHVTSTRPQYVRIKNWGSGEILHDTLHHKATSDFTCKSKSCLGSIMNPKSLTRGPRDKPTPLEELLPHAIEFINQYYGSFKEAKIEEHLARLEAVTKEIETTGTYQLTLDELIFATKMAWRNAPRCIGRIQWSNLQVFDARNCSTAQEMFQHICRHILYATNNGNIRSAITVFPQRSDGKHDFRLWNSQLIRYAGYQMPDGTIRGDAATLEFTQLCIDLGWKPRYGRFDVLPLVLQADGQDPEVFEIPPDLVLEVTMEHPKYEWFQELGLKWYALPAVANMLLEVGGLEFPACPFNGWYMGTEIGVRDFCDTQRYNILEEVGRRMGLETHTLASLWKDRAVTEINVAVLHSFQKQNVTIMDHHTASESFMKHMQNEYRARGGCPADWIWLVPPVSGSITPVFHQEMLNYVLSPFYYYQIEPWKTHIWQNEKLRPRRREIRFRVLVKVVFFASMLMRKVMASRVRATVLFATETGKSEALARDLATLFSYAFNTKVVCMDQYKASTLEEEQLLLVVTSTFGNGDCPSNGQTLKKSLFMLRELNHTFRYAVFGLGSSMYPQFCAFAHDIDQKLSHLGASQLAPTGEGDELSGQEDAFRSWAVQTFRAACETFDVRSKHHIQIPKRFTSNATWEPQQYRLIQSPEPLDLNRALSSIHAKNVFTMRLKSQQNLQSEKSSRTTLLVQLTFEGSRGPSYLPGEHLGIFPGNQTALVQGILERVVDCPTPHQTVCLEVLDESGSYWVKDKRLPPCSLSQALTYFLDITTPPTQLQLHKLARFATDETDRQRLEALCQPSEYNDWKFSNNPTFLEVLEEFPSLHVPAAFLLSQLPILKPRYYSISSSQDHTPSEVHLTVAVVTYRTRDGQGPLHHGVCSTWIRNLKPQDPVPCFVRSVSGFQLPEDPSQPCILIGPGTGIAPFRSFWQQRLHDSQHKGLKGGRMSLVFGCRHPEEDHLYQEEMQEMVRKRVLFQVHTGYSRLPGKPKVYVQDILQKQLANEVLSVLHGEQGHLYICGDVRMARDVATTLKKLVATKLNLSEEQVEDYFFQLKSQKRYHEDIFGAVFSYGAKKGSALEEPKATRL
Briefly: Inhibition of iNOS-mediated NO production in LPS-induced mouse BV2 cells. Type of assay: cell-based, BV-2.

Another assay relates to BV-2. The assay can be described thus: Inhibition of NADPH oxidase in LPS-induced mouse BV2 cells assessed as NOX-dependent ROS production at 50 uM. The format is cell-based.
For assay [2], the system named is Radical scavenging activity. The assay can be described thus: Antioxidant activity assessed as DPPH radical scavenging activity at 50 uM. Type of assay: functional. For orientation: DPPH is a stable violet radical that fades when it is reduced.

The results in this text go back to ChEMBL document CHEMBL1152257, “New diterpenoids and the bioactivity of Erythrophleum fordii” (Bioorg Med Chem, 2008).

A word on the IC50: it is the concentration that inhibits the measured activity by half. Lower therefore signals greater potency. As usually defined, the inhibition is the percentage by which the read-out fell short of the control.

Turning to `CC[C@H](CC[C@@H](C)[C@H]1CC[C@H]2[C@@H]3[C@@H](O)C=C4C[C@@H](O)CC[C@]4(C)[C@H]3CC[C@]12C)C(C)C`, in assay [1], the IC50 is > 50 µM. The inhibition in the assay with BV-2 came out at 17.1%.

With `CC1(C)CC[C@]2(C)CC[C@]3(C)C(=CC[C@@H]4[C@@]5(C)CCC(=O)C(C)(C)[C@@H]5CC[C@]43C)[C@@H]2C1`, in assay [1], the IC50 is > 50 µM. In addition, in the assay on BV-2, the inhibition came out at 0%.

Consider `CC[C@H](CC[C@@H](C)[C@H]1CC[C@H]2[C@@H]3C[C@@H](O)C4=C[C@@H](O)CC[C@]4(C)[C@H]3CC[C@]12C)C(C)C`, for which the IC50 in assay [1] is > 50 µM. Besides, the inhibition in the assay on BV-2 worked out at 1.6%.

Regarding `CC[C@H](/C=C/[C@@H](C)[C@H]1CC[C@H]2C3=CC[C@H]4C[C@@H](O)CC[C@]4(C)[C@H]3CC[C@]12C)C(C)C`, the 50% inhibitory concentration (IC50) in assay [1] was > 50 µM. In the assay with BV-2, the inhibition was 8.7%.

In the case of `C[C@@H](O)/C=C/[C@@]1(O)C(C)(C)C[C@H](O)C[C@@]1(C)O`, the IC50 in assay [1] was > 50 µM. Further, in the assay with BV-2, the inhibition turned out to be 25.2%.

For the compound `C[C@@H]1O[C@@H](Oc2c(-c3ccc(O)cc3)oc3cc(O)cc(O)c3c2=O)[C@H](O)[C@H](O)[C@H]1O`, the inhibition in the assay with BV-2 came out at 6%.

For the compound `Cc1c(C)c2c(c(C)c1O)CCC(C)(C(=O)O)O2` (stereo unspecified), the Activity in assay [2] was found to be 85.7%.

For the compound `c1ccc2c(c1)[I+]c1ccccc1-2`, in the assay on BV-2, the inhibition is 85.1%.

On to `C=CC(C)(C)c1[nH]c2c(CC=C(C)C)cc(CC=C(C)C)cc2c1C[C@@H]1NC(=O)[C@H](C)NC1=O` [ECHINULIN], for which the IC50 in assay [1] is > 50 µM. In addition, the inhibition in the assay on BV-2 stood at 8.8%.

In the case of `C[C@H]1C(=O)CC[C@@H]2[C@]1(C)CC[C@H]1[C@@]2(C)CC[C@@]2(C)[C@@H]3CC(C)(C)CC[C@]3(C)CC[C@]12C` [FRIEDELINE], the half-inhibitory concentration (IC50) in assay [1] is > 50 µM. The inhibition in the assay with BV-2 amounted to 4.2%.

As to `O=C(O)c1cc(O)c(O)c(O)c1` [GALLIC ACID], the Activity in assay [2] was found to be 85.6%. In addition, in assay [1], the IC50 was > 50 µM. In addition, in the assay with BV-2, the inhibition amounted to 21.5%.

Regarding `CC(=O)O[C@H]1CC[C@@H]2C(=CC[C@H]3[C@@]2(C)CC[C@@]2(C)[C@@H]4CC(C)(C)CC[C@]4(C)CC[C@]32C)C1(C)C` [GLUTINOL ACETATE], the half-inhibitory concentration (IC50) in assay [1] was > 50 µM. Moreover, the inhibition in the assay with BV-2 is 10.8%.

With `CC1(C)CC[C@]2(C)CC[C@]3(C)[C@H]4CC=C5[C@@H](CC[C@H](O)C5(C)C)[C@]4(C)CC[C@@]3(C)[C@@H]2C1` [GLUTINOL], in assay [1], the half-maximal inhibitory concentration (IC50) is > 50 µM. The inhibition with BV-2 came out at 19.2%.

On to `CC1(C)CC[C@]2(C)CC[C@]3(C)[C@H]4CC=C5[C@@H](CCC(=O)C5(C)C)[C@]4(C)CC[C@@]3(C)[C@@H]2C1` [GLUTINONE], for which, in assay [1], the IC50 is > 50 µM. Moreover, the inhibition in the assay on BV-2 came out at 6.6%.

Regarding `CO[C@H]1[C@H](O)[C@@H](O)[C@@H](O)[C@H](O)[C@@H]1O` [METHYLINOSITOL], the half-inhibitory concentration (IC50) in assay [1] was > 50 µM. Besides, the inhibition in the assay with BV-2 was found to be 16.5%.

For the compound `C[C@@H]1[C@@H](O)CC[C@]2(C)[C@H]3CC/C(=C\C(=O)O)[C@H](C)[C@@H]3[C@@H](O)C(=O)[C@@H]12` [NORERYTHROFORDIN A], the IC50 in assay [1] was > 50 µM. Further, the inhibition with BV-2 worked out at 8.6%.

The compound `CC1(C)CC[C@]2(C)CC=C3[C@]4(C)CC[C@H]5C(C)(C)[C@@H](O)CC[C@]5(C)[C@H]4CC[C@@]3(C)[C@@H]2C1` [TARAXEROL] had an IC50 in assay [1] of 24.2 µM. Also, the inhibition with BV-2 was found to be 11.6%.

In turn, `CC1(C)CC[C@]2(C)CC=C3[C@]4(C)CC[C@H]5C(C)(C)C(=O)CC[C@]5(C)[C@H]4CC[C@@]3(C)[C@@H]2C1` [TARAXERONE] showed a half-inhibitory concentration (IC50) in assay [1] of 46.5 µM. The inhibition in the assay on BV-2 was 5.2%.

On to `CC(=O)O[C@H]1CC[C@]2(C)[C@H]3CC=C4[C@@H]5CC(C)(C)CC[C@]5(C)CC[C@@]4(C)[C@]3(C)CC[C@H]2C1(C)C` [beta-AMYRIN ACETATE], for which, in assay [1], the IC50 was > 50 µM. Moreover, the inhibition with BV-2 was found to be 9.2%.
